According to paper PMC11345841, “Exploring 2-Sulfonylpyrimidine Warheads as Acrylamide Surrogates for Targeted Covalent Inhibition: A BTK Story” (Journal of Medicinal Chemistry, 2024):
Like-named read-outs stand apart in the source and are kept apart here. Values belong to the compound of their own block, whether it stands above or below them.

What was measured:
[1] = target: T1, ABL1-phosphorylated (Homo sapiens, UniProt P00519); assay: KINOMEscan ScanTK; format: binding
T1 construct: purchased Eurofins DiscoverX KINOMEscan (scanTK)

[2] = target: T2, ABL2 (Homo sapiens, UniProt P42684); assay: KINOMEscan ScanTK; format: binding
T2 construct: purchased Eurofins DiscoverX KINOMEscan (scanTK)

[3] = target: T3, BRK (Homo sapiens, UniProt Q13882); assay: KINOMEscan ScanTK; format: binding
T3 construct: purchased Eurofins DiscoverX KINOMEscan (scanTK)

[4] = target: T4, CTK (Homo sapiens, UniProt P42679); assay: KINOMEscan ScanTK; format: binding
T4 construct: purchased Eurofins DiscoverX KINOMEscan (scanTK)
T4 sequence (P42679 1-507): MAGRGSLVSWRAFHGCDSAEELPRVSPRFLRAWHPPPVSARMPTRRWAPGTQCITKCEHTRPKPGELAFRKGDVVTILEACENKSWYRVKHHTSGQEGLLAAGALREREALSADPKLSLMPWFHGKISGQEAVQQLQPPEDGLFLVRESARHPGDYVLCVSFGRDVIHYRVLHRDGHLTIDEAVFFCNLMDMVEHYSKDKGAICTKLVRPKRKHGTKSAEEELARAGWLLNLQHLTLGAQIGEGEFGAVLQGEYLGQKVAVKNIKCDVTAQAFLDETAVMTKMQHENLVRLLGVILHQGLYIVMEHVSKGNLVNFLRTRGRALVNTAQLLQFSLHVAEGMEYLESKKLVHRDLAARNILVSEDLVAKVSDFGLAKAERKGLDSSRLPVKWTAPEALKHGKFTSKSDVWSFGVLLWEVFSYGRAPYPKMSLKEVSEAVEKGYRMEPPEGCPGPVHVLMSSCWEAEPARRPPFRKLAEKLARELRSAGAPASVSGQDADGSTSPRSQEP

[5] = target: T5, EPHA6 (Homo sapiens, UniProt Q9UF33); assay: KINOMEscan ScanTK; format: binding
T5 construct: purchased Eurofins DiscoverX KINOMEscan (scanTK)
T5 sequence (Q9UF33 23-1036): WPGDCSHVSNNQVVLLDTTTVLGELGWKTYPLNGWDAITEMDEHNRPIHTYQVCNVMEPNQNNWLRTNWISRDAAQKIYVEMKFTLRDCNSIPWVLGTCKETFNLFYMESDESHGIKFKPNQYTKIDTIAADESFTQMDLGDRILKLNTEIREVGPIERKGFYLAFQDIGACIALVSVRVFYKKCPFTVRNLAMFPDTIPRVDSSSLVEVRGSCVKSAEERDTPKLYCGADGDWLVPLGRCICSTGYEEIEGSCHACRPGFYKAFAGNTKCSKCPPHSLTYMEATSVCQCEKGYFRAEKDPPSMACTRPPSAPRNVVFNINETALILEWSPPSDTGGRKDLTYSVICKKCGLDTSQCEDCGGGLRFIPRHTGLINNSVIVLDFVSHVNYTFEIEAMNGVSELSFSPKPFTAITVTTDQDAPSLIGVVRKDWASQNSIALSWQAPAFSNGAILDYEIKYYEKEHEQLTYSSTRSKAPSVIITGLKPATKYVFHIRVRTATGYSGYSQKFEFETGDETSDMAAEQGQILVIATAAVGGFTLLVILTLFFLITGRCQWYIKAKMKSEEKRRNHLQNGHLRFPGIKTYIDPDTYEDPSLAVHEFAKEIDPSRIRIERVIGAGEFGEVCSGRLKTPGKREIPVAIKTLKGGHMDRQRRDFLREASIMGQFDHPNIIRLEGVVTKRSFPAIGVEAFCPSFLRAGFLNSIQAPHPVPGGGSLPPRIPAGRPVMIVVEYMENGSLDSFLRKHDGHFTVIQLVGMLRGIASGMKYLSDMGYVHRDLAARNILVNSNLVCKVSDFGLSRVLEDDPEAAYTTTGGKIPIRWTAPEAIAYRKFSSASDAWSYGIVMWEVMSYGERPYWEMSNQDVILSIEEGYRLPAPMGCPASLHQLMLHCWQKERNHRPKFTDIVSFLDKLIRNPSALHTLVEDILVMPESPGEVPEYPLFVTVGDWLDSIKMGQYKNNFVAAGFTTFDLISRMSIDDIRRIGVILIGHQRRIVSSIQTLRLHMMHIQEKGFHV

[6] = target: T6, ERBB4 (Homo sapiens, UniProt Q15303); assay: KINOMEscan ScanTK; format: binding
T6 construct: purchased Eurofins DiscoverX KINOMEscan (scanTK)

[7] = target: T7, FGFR3(G697C) (Homo sapiens, UniProt P22607, G697C); assay: KINOMEscan ScanTK; format: binding
T7 construct: purchased Eurofins DiscoverX KINOMEscan (scanTK)

[8] = target: T8, MET(Y1235D) (Homo sapiens, UniProt P08581, Y1235D); assay: KINOMEscan ScanTK; format: binding
T8 construct: purchased Eurofins DiscoverX KINOMEscan (scanTK)

[9] = target: T9, PDGFRB (Homo sapiens, UniProt P09619); assay: KINOMEscan ScanTK; format: binding
T9 construct: purchased Eurofins DiscoverX KINOMEscan (scanTK)

[10] = target: T10, TRKC (Homo sapiens, UniProt Q16288); assay: KINOMEscan ScanTK; format: binding
T10 construct: purchased Eurofins DiscoverX KINOMEscan (scanTK)

[11] = target: T11, ABL1(F317L)-phosphorylated (Homo sapiens, UniProt P00519, F317L); assay: KINOMEscan ScanTK; format: binding
T11 construct: purchased Eurofins DiscoverX KINOMEscan (scanTK)

[12] = target: T12, ABL1-nonphosphorylated (Homo sapiens, UniProt P00519); assay: KINOMEscan ScanTK; format: binding
T12 construct: purchased Eurofins DiscoverX KINOMEscan (scanTK)

[13] = target: T13, EGFR(L747-E749del, A750P) (Homo sapiens, UniProt P00533, A750P/DEL747-749); assay: KINOMEscan ScanTK; format: binding
T13 construct: purchased Eurofins DiscoverX KINOMEscan (scanTK)

[14] = target: T14, INSRR (Homo sapiens, UniProt P14616); assay: KINOMEscan ScanTK; format: binding
T14 construct: purchased Eurofins DiscoverX KINOMEscan (scanTK)

[15] = target: wild-type BTK (Homo sapiens, UniProt Q06187); assay: BTK in vitro activity assay (ADP-Glo, poly-Glu:Tyr phosphorylation, TCEP)

T9 sequence (P09619 33-1106): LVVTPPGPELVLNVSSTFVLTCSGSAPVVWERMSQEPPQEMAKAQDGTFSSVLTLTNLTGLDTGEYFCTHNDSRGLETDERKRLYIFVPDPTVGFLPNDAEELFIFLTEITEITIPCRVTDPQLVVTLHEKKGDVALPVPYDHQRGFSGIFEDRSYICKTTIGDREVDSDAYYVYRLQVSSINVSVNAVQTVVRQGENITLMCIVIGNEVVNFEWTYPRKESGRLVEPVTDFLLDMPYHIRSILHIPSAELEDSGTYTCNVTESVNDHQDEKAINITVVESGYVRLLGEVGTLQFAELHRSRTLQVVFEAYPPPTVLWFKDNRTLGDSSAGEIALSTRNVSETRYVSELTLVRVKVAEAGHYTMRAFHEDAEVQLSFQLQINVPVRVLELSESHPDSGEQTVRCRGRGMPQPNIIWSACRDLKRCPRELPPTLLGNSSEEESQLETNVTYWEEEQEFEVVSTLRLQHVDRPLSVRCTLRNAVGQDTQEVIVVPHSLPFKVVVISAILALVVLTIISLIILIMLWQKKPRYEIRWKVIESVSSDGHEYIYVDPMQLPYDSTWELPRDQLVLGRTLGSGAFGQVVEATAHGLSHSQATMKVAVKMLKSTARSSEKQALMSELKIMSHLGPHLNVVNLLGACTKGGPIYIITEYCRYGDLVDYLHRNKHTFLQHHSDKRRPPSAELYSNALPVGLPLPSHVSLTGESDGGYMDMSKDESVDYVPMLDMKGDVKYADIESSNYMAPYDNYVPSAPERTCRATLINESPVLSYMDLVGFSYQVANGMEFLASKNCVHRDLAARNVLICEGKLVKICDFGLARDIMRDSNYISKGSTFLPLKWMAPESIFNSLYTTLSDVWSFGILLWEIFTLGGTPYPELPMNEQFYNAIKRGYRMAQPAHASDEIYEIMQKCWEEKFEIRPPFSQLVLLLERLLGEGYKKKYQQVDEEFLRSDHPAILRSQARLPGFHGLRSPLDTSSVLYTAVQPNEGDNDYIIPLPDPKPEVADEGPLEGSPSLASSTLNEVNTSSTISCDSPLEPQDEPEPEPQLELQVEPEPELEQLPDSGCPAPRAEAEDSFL
T2 sequence (P42684 whole entry): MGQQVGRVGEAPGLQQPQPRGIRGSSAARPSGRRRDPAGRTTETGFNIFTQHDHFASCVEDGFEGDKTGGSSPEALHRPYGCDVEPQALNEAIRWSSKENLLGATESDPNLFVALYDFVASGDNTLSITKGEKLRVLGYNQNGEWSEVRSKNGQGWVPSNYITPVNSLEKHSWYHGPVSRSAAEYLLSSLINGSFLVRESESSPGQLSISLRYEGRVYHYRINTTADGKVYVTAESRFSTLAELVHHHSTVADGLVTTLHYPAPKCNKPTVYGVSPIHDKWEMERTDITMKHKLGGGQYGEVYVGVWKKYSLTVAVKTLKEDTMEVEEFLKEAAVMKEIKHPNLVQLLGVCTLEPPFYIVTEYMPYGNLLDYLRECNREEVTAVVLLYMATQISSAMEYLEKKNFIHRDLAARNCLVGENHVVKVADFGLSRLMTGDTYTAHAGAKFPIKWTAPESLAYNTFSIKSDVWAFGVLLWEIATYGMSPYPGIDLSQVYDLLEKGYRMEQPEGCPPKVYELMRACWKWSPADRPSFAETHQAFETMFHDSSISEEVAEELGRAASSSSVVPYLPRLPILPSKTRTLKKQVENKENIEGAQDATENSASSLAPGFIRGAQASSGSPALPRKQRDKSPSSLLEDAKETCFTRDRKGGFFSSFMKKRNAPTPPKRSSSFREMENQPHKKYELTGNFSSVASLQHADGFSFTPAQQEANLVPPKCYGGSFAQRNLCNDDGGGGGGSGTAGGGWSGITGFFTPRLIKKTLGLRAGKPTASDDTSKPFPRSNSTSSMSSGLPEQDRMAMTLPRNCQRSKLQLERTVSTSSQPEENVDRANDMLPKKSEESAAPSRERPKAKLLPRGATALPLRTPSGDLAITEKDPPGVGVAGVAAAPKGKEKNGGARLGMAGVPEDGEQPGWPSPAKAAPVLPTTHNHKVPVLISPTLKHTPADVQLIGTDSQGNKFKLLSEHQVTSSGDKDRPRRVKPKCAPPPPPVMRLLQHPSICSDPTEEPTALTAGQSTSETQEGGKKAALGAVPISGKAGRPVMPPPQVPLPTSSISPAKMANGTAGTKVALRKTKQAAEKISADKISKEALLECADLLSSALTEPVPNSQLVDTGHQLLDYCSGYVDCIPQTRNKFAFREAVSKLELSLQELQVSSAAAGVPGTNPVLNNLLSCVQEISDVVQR
T12 sequence (P00519 whole entry): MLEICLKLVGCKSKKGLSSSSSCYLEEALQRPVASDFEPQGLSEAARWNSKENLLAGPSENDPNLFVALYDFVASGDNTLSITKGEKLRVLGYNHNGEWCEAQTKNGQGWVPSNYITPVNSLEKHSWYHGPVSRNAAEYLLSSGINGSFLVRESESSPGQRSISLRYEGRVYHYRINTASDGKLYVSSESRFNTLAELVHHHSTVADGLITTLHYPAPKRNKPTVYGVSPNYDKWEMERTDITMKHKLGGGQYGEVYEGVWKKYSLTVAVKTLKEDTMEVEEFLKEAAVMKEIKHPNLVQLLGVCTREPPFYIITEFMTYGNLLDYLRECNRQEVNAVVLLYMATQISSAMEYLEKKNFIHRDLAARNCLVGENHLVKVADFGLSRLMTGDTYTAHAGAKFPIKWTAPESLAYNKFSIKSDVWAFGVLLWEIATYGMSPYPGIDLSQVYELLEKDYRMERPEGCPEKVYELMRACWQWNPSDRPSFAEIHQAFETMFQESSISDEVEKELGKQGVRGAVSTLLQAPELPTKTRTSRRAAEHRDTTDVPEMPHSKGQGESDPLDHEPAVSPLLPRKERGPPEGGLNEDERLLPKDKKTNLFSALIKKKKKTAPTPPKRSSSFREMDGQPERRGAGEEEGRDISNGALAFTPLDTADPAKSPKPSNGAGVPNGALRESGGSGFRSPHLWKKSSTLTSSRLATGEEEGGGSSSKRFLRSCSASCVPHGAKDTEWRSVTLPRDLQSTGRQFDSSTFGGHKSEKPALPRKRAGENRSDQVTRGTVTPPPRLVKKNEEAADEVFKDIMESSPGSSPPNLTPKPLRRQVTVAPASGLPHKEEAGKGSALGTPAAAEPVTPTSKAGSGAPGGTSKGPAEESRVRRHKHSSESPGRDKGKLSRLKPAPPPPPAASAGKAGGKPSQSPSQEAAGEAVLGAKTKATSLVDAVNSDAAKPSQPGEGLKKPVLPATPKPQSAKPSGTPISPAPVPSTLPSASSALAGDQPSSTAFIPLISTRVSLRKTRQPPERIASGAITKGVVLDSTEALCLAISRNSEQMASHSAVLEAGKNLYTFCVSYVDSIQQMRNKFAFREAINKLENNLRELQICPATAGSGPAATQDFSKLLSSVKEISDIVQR
T1 sequence (P00519 whole entry): as above
T10 sequence (Q16288 32-839): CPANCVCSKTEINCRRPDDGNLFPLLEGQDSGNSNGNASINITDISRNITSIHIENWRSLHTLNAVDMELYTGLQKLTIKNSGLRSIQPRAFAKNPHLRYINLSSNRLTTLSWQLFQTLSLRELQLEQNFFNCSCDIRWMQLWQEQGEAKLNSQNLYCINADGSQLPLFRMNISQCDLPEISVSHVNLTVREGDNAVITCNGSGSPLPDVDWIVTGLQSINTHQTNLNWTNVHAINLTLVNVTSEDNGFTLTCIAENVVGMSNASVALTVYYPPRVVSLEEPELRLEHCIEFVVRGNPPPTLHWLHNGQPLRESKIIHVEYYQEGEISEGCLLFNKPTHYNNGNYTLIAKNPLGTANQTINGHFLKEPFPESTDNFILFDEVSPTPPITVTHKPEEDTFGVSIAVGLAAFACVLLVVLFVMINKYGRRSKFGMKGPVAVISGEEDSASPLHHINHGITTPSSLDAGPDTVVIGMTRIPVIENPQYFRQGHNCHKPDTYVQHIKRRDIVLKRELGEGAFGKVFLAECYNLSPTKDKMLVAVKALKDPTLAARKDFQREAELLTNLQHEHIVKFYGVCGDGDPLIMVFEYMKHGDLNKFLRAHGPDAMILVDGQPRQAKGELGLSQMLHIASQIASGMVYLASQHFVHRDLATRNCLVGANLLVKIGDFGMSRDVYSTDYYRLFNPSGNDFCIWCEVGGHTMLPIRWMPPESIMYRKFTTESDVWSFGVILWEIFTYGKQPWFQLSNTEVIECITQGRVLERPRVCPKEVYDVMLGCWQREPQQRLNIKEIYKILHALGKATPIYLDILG
T7 sequence (P22607 23-806 G697C): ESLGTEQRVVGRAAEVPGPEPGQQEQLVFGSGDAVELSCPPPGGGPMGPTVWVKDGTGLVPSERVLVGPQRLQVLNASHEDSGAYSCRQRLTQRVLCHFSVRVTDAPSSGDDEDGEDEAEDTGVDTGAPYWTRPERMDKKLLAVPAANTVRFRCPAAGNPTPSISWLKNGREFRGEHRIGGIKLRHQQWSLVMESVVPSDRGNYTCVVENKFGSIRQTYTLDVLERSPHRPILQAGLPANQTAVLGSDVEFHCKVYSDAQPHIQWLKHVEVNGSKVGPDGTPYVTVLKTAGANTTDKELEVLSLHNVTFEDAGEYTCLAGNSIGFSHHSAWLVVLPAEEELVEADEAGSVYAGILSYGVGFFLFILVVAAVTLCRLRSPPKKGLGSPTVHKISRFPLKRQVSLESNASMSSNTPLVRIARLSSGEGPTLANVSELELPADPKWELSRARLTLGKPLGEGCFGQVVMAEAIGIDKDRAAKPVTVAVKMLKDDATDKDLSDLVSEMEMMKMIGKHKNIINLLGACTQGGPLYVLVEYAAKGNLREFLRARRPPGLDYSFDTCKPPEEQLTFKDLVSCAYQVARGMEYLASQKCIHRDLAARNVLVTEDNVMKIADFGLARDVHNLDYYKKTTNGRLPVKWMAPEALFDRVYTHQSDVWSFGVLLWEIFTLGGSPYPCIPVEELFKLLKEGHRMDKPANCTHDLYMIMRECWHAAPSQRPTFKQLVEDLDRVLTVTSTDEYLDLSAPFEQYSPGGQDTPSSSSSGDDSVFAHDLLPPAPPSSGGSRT
T11 sequence (P00519 whole entry F317L): as the sequence (P00519 whole entry) above, with F317L counted along it

SMILES: C=CC(=O)N1CCC[C@@H](n2nc(-c3ccc(Oc4ccccc4)cc3)c3c(N)ncnc32)C1 [Compound 1g, Ibrutinib, reference compound]
remaining binding at 1 µM ([1]; @1000nM, read-out: %Control): 60%
remaining binding at 1 µM ([1]; read-out: %Control @1000nM): 60%
remaining binding at 1 µM ([2]; @1000nM, read-out: %Control): 41%
remaining binding at 1 µM ([2]; read-out: %Control @1000nM): 41%
remaining binding at 1 µM ([3]; @1000nM, read-out: %Control): 1.3%
remaining binding at 1 µM ([3]; read-out: %Control @1000nM): 1.3%
remaining binding at 1 µM ([4]; @1000nM, read-out: %Control): 80%
remaining binding at 1 µM ([4]; read-out: %Control @1000nM): 80%
remaining binding at 1 µM ([5]; @1000nM, read-out: %Control): 77%
remaining binding at 1 µM ([5]; read-out: %Control @1000nM): 77%
remaining binding at 1 µM ([6]; @1000nM, read-out: %Control): 0.05%
remaining binding at 1 µM ([6]; read-out: %Control @1000nM): 0.05%
remaining binding at 1 µM ([7]; @1000nM, read-out: %Control): 40%
remaining binding at 1 µM ([7]; read-out: %Control @1000nM): 40%
remaining binding at 1 µM ([8]; @1000nM, read-out: %Control): 96%
remaining binding at 1 µM ([8]; read-out: %Control @1000nM): 96%
remaining binding at 1 µM ([9]; @1000nM, read-out: %Control): 25%
remaining binding at 1 µM ([9]; read-out: %Control @1000nM): 25%
remaining binding at 1 µM ([10]; read-out: %Control): 95%
remaining binding at 1 µM ([10]; read-out: %Control @1000nM): 95%

difference in %Control from compound Ib at 1 µM ([11]; @1000nM): 16%
remaining binding at 1 µM ([11]; @1000nM, read-out: %Control): 53%
remaining binding at 1 µM ([11]; read-out: %Control @1000nM): 53%
difference in %Control from reference compound Ib at 1 µM ([12]; @1000nM): 56.5%
remaining binding at 1 µM ([12]; @1000nM, read-out: %Control): 65%
remaining binding at 1 µM ([12]; read-out: %Control @1000nM): 65%
difference in %Control from compound Ib at 1 µM ([1]; @1000nM): 19%
remaining binding at 1 µM ([1]; @1000nM, read-out: %Control): 79%
remaining binding at 1 µM ([1]; read-out: %Control @1000nM): 79%
difference in %Control from reference compound Ib at 1 µM ([2]; @1000nM): 38%
remaining binding at 1 µM ([2]; @1000nM, read-out: %Control): 79%
remaining binding at 1 µM ([2]; read-out: %Control @1000nM): 79%
difference in %Control relative to compound Ib at 1 µM ([3]; @1000nM): 40.7%
remaining binding at 1 µM ([3]; @1000nM, read-out: %Control): 42%
remaining binding at 1 µM ([3]; read-out: %Control @1000nM): 42%
difference in %Control versus compound Ib at 1 µM ([4]; @1000nM): 8%
remaining binding at 1 µM ([4]; @1000nM, read-out: %Control): 88%
remaining binding at 1 µM ([4]; read-out: %Control @1000nM): 88%
difference in %Control versus compound Ib at 1 µM ([13]; @1000nM): 69.9%
remaining binding at 1 µM ([13]; @1000nM, read-out: %Control): 73%
remaining binding at 1 µM ([13]; read-out: %Control @1000nM): 73%
difference in %Control from compound Ib at 1 µM ([5]; @1000nM): 15%
remaining binding at 1 µM ([5]; @1000nM, read-out: %Control): 92%
remaining binding at 1 µM ([5]; read-out: %Control @1000nM): 92%
difference in %Control versus compound Ib at 1 µM ([6]; @1000nM): 0.5%
remaining binding at 1 µM ([6]; @1000nM, read-out: %Control): 0.55%
remaining binding at 1 µM ([6]; read-out: %Control @1000nM): 0.55%
difference in %Control versus compound Ib at 1 µM ([7]; @1000nM): 44%
remaining binding at 1 µM ([7]; @1000nM, read-out: %Control): 84%
remaining binding at 1 µM ([7]; read-out: %Control @1000nM): 84%
difference in %Control versus compound Ib at 1 µM ([14]; @1000nM): 0%
remaining binding at 1 µM ([14]; @1000nM, read-out: %Control): 96%
remaining binding at 1 µM ([14]; read-out: %Control @1000nM): 96%
remaining binding at 1 µM ([8]; @1000nM, read-out: %Control): 94%
remaining binding at 1 µM ([8]; read-out: %Control @1000nM): 94%
remaining binding at 1 µM ([9]; @1000nM, read-out: %Control): 68%
remaining binding at 1 µM ([9]; read-out: %Control @1000nM): 68%
difference in %Control versus compound Ib at 1 µM ([10]; @1000nM, TRKC): -17%
remaining binding at 1 µM ([10]; @1000nM, TRKC, read-out: %Control): 78%
remaining binding at 1 µM ([10]; TRKC, read-out: %Control @1000nM): 78%
IC50 [15]: 57 ± 1 nM
remaining activity at 0.1 µM ([15]; read-out: Remaining BTK activity (%)): 2 ± 1%
SMILES: COC(=O)c1cnc(S(C)(=O)=O)nc1N1CCCC(n2nc(-c3ccc(Oc4ccccc4)cc3)c3c(N)ncnc32)C1 (centres unmarked) [Compound 8b, Methyl 4-(3-(4-Amino-3-(4-phenoxyphenyl)-1H-pyrazolo[3,4-d]pyrimidin-1-yl)piperidin-1-yl)-2-(methylsulfonyl)pyrimidine-5-carboxylate]
